For this data set, the system named is cucumber seedlings. The data set can be described thus: Test A: phytotoxicity to the cucumber seedlings of the test units. It counts as in vivo. The conditions noted are these: 250 ppm active ingredient applied to soil, 7 days. Here is the method: Control of the southern root-knot nematode (Meloidogyne incognita) through contact and/or systemic means was evaluated in test units consisting of small open containers filled with a sandy soil mixture and cucumber seedlings. Test compounds were formulated using a solution containing 50% acetone and 50% water. Test compounds were applied directly to the soil of the test units at a concentration of 250 ppm active ingredient. Each test was replicated 3 times. After treatment, the test units were allowed to dry for 1 hour, after which time about 250 second-stage juvenile (J2) larvae were pipetted into the soil. The test units were held at 27° C. and watered as needed for 7 days. Nematocidal efficacy was determined by the amount of root gall formation observed when compared to an untreated control. No gall formation was indicative of 100% nematode control. Gall formation equivalent to that found in the untreated control was indicative of 0% control. No nematode control rating was given to compounds showing significant phytotoxicity.

`O=C(NS(=O)(=O)c1cc(C(F)(F)F)ccc1Cl)c1cn2cc(Br)cnc2n1` [Compound 4, 6-bromo-N-[[2-chloro-5-(trifluoromethyl)phenyl]sulfonyl]imidazo[1,2-a]pyrimidine-2-carboxamide]: the phytotoxicity result is recorded as “no significant phytotoxicity”.

Turning to `COc1ccc(Cl)c(S(=O)(=O)NC(=O)c2cn3cc(C(F)(F)F)ncc3n2)c1` [Compound 1, N-[(2-chloro-5-methoxyphenyl)sulfonyl]-6-(trifluoromethyl)imidazo[1,2-a]pyrazine-2-carboxamide], the phytotoxicity result is “no significant phytotoxicity”.

Regarding `O=C(NS(=O)(=O)c1cc(C(F)(F)F)ccc1Cl)c1cn2cc(C(F)(F)F)cnc2n1` [Compound 6, N-[[2-chloro-5-(trifluoromethyl)phenyl]sulfonyl]-6-(trifluoromethyl)imidazo[1,2-a]pyrimidine-2-carboxamide], the phytotoxicity result was “no significant phytotoxicity”.

These data come from patent US9023850B2, “Nematocidal sulfonamides” (E I du Pont de Nemours and Company, priority 2010, dated 2015).
